According to patent US7914821B2, “Pharmaceutical composition for prevention and/or treatment of bone loss” (KO DA Pharmaceuticals Co., Ltd., priority 2008, dated 2011):

Tests used:
[1] = system: p38; test: Phosphorylation of p38 (western blot); type: cell-based, rat; conditions: 10 μM, 1, 3, 6, 12, 24 hrs; FIG. 10
Protocol: (§1) Rat primary osteoblast was isolated from the parietal bone of gestation day 18 embryos of Sprague-Dawley rats. After being slaughtered, the embryo rats were obtained from the uteruses of the rats, and calvarium was isolated from the embryo rats. Parietal bone was cut from the calvarium and digested by 0.1% collagenase for 20 minutes to release the bone cells from the bone tissue. The digestion step was repeated five times. The collected bone cells were cultured in α-MEM containing 1% penicillin-streptomycin and 10% FBS in a humidified atmosphere of 5 percent carbon dioxide. When cells were attached and confluence, they were sub-cultured, which was called “passage 2 (P2)”. The passage was for analogizing. 2 to 5 passage cells were used for the experiments.
Bone cells was cultured in 6-well plate and treated with 10 μM of imperatorin and bergapten for 1, 3, 6, 12, and 24 hrs, respectively. […] Following incubation with the secondary antibody, the membrane was washed three times with PBST, and detected by an […] chemiluminescence using an ECL blotting substrate according to the manufacturer's instructions. […]

[2] = system: Bone cells; test: Cell viability (MTT); type: cell-based, rat; conditions: 0.3, 1, 3, 10 μM, 48 hrs, FIG. 7A
Protocol: as §1
Bone cells were cultured in 96-well plate and treated with 0.3, 1, 3, and 10 μM of imperatorin and bergapten for 48 hrs, respectively. After treatment, the cells were reacted with MTT solution (0.5 mg/ml) at 37° C. for 30 minutes, lysed in 100 μl DMSO, and then absorbance was measured at […]. The cell viability in the control group which was treated with 0.1% DMSO was defined as 100%.

[3] = system: Bone cells; test: ALP activity of bone cells; type: cell-based, rat; conditions: for ALP activity of the bone cells: 0.3, 1, 3, 10 μM, FIG. 8A
Source text: Rat primary osteoblast was isolated from the parietal bone of gestation day 18 embryos of Sprague-Dawley rats. After being slaughtered, the embryo rats were obtained from the uteruses of the rats, and calvarium was isolated from the embryo rats. […] The digestion step was repeated five times. […] When cells were attached and confluence, they were sub-cultured, which was called “passage 2 (P2)”. The passage was for analogizing. 2 to 5 passage cells were used for the experiments. Bone cells were treated with 0.3, 1, 3, and 10 μM of imperatorin and bergapten, respectively. After treatment, the osteoblast cells were digested in 0.2% NP-40 solution, and then centrifuged at 1500 g for 5 minutes. The ALP activity of the osteoblast cells was tested using an ALP kit (Roche Applied Science). […] Referring to FIG. 8A, imperatorin and bergapten both increased the ALP activity of the bone cells.

[4] = system: BMP-2 gene; test: BMP-2 gene expression (RT-PCR); type: cell-based, rat; conditions: for BMP-2 mRNA level, dependence on concentration: 0.3, 1, 3, 10 μM, FIG. 9A; for BMP-2 mRNA level, dependence on treatment time: 1, 3, 6, 12 hrs, FIG. 9B
Protocol: as §1
Bone cells were cultured in 6-well Plate and cultured with 0.3, 1, 3, and 10 μM of imperatorin and bergapten for 1, 3, 6, and 12 hrs, respectively. After treatment, the cells were lysed with TRIzol reagent at room temperature for 5 minutes, and then collected in a centrifuge tube. 0.5 ml of chloroform was added to the centrifuge tube. After the addition of chloroform, the centrifuge tube was well mixed, and centrifuged at 14000×g for 15 minutes at room temperature to obtain a supernatant. The supernatant was mixed with isopropanol (0.25 ml) and then centrifuged at 14000×g at room temperature for 15 minutes to obtain a precipitated RNA. RNA was washed with 75% alcohol, centrifuged at 14000×g for 10 minutes, and dried to give a RNA pellet. The RNA pellet was dissolved in diethyl pyrocarbonate (DEPC) solution and then quantitated by measurement of OD260/280. BMP-2 gene expression (BMP-2 mRNA level) was detected by RT-PCR using Supperscript™ III reverstranscriptase and […] (Applied Biosystems). The BMP-2 mRNA level in the control group which was treated with 0.1% DMSO was defined as 100%.

[5] = system: p38 mutant cell (DN-p38); test: ALP activity in p38 mutant cell; type: cell-based; conditions: 10 μM; FIG. 11D
Protocol: Bone cells were cultured and treated with (1) 10 μM SB203580, (2) 10 μM PD98059, (3) 10 μM imperatori, (4) 10 μM bergapten, (5) 10 μM imperatorin+SB203580, (6) 10 μM bergapten+SB203580, (7) 10 μM imperatorin+PD98059 ? (8) 10 μM bergapten+PD98059 for 48 hrs. After treatment, the bone cells were lysed in 0.2% […] solution and centrifuged at 1500×g for 5 minutes. The supernatant was analyzed by an ALP kit such as described above to obtain the ALP activity. The ALP activity in the control group which was treated with 0.1% DMSO was defined as 100%. Referring to FIG. 11C, p38 inhibitor (SB203580) and ERK inhibitor (PD98059) suppressed the imperatorin and bergapten induced-ALP activity.
The same procedure carried out in Example 20 was repeated. The experiment group used alternative cells and treatment comprising: (1) DN-p38 cell, (2) DN-ERK cell, (3) DN-p38 cell+10 μM imperatorin, (4) DN-p38 cell+10 μM bergapten, (5) DN-ERK cell+10 μM imperatorin, (6) DN-ERK cell+10 μM bergapten, (7) normal bone cell+10 μM imperatorin, and (8) normal bone cell+10 μM bergapten. The ALP activity in the control group which was treated with 0.1% DMSO was defined as 100%. Referring to FIG. 11D, the ALP activity was not induced in p38 mutant cell (DN-p38) and ERK mutant cell (DN-ERK) by imperatorin and bergapten.

Compound | phosphorylation of p38 [1] | cell viability [2] | ALP activity of the bone cells [3] | increase of alkaline phosphatase (ALP) activity ([3]; 'at least' figure) [%] | BMP-2 mRNA level, dependence on concentration [4] | BMP-2 mRNA level, dependence on treatment time [4] | ALP activity in p38 mutant cell (DN-p38) [5] | increase of alkaline phosphatase (ALP) activity ([3]; 'preferably ... at least' figure)
COc1c2ccoc2cc2oc(=O)ccc12 [bergapten] | induced | did not suppress | increased | ≥ 80.0 | increased according to the increase of the concentration | increased according to the increase of the treatment time | not induced | –
CC(C)=CCOc1c2occc2cc2ccc(=O)oc12 [imperatorin] | induced | – | increased | ≥ 6.0 | increased according to the increase of the concentration | increased according to the increase of the treatment time | not induced | at least 95%
